{
  "source": "patent US7875600B2",
  "about": "“Pyrimidine compounds as purine receptor antagonist” (Vernalis (R&D) Limited, priority 2004, dated 2011)",
  "key": {"[1]": {"target": "human adenosine A2A receptors (Homo sapiens, UniProt P29274)", "sequence (P29274 whole entry)": "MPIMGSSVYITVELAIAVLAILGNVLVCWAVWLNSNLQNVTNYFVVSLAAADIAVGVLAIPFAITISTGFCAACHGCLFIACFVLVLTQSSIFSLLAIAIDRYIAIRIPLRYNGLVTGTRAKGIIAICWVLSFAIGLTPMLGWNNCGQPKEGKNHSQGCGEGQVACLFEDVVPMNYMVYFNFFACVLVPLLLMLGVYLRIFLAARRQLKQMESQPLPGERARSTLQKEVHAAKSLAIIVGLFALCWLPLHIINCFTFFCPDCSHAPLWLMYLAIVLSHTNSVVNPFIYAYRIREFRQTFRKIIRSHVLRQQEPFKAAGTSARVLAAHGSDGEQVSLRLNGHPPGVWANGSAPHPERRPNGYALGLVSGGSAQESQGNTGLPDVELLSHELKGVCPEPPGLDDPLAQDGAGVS", "assay": "Binding affinities at hA2A receptors, displacement of [3H]-CGS 21680", "details": "human adenosine A2A receptor, [3H]-CGS 21680 displacement", "from_the_text": "Adenosine Receptor Binding Binding Affinities at hA2A Receptors\nThe compounds were examined in an assay measuring in vitro binding to human adenosine A2A receptors by determining the displacement of the adenosine A2A receptor selective radioligand [^3H]-CGS 21680 using standard techniques."}, "[2]": {"system": "haloperidol-induced deficits in locomotor activity in mice", "assay": "Haloperidol-induced hypolocomotion model", "format": "in vivo", "details": "oral, dose of 30 mg/kg", "from_the_text": "Haloperidol-Induced Hypolocomotion Model\nThis approach is also considered a valid method for screening drugs with potential antiparkinsonian effects. Thus, the ability of novel adenosine antagonists to block haloperidol-induced deficits in locomotor activity in mice can be used to assess both in vivo and potential antiparkinsonian efficacy.\nFemale TO mice (25-30 g) obtained from Harlan, UK, are used for all experiments. Animals are housed in groups of 8 [cage size—40 (width)×40 (length)×20 (height) cm] under 12 h light/dark cycle (lights on 08:00 hr), in a temperature (20±2° C.) and humidity (55±15%) controlled environment. Animals have free access to food and water, and are allowed at least 3 days to acclimatize after delivery before experimental use.\nLiquid injectable haloperidol (1 ml Serenance ampoules from Baker Norton, Harlow, Essex, each containing haloperidol BP 5 mg) are diluted to a final concentration of 0.02 mg/ml using saline. Test compounds are typically prepared as aqueous suspensions in 1% methyl cellulose. All compounds are administered orally in a volume of 10 ml/kg.\n1.5 h before testing, mice are administered 0.2 mg/kg haloperidol, a dose that reduces baseline locomotor activity by at least 50%. […] Horizontal locomotor activity is determined by placing the cages within a frame containing a 4×7 array of photocells linked to a computer, which tabulates beam breaks. […]"}, "[3]": {"system": "cataleptic responses", "details": "cited from earlier work"}, "[4]": {"system": "Parkinsonian patients", "details": "15 Parkinsonian patients, up to 12 weeks, 150 mg/day oral; cited from earlier work"}},
  "data": [
    {"compound": "Nc1nc(C(=O)NCc2ccccc2F)cc(-c2ccco2)n1", "note": "[Example 1, 2-Amino-N-(2-fluorobenzyl)-6-(2-furyl)pyrimidine-4-carboxamide]", "values": [
      {"measurement": "Ki", "setting": "[1]", "result": "< 50", "unit": "nM"},
      {"measurement": "activity in haloperidol-induced hypolocomotion model", "setting": "[2]", "result": "orally active"}
    ]},
    {"compound": "CCCn1c(=O)c2c(nc(/C=C/c3ccc(OC)c(OC)c3)n2C)n(CCC)c1=O", "note": "[KF 17837, (E)-8-(3,4-dimethoxystyryl)-1,3-dipropyl-7-methylxanthine]", "values": [
      {"measurement": "anticataleptic effects of a subthreshold dose of L-DOPA plus benserazide", "setting": "[3]; in vivo", "result": "potentiated"},
      {"measurement": "catalepsy induced by haloperidol and reserpine", "setting": "[3]; in vivo", "result": "reduced"},
      {"measurement": "cataleptic responses induced by intracerebroventricular CGS 21680", "setting": "[3]; oral administration", "result": "significantly ameliorated"}
    ]},
    {"compound": "Cn1c(=O)c2[nH]cnc2n(C)c1=O", "note": "[theophylline, 1,3-dimethylxanthine]", "values": [
      {"measurement": "mean objective disability scores", "setting": "[4]", "result": "significant improvements"}
    ]}
  ]
}
